Experimental findings from patent US11524968B2, “Heterocyclic compound as a protein kinase inhibitor” (HK inno.N Corporation, priority 2017, dated 2022) are described below.

This experiment deals with JAK1 (Homo sapiens (Human), UniProt P23458). The experiment in a line: Analysis of JAK1 activity inhibition ability (ADP-Glo Kinase Assay). The class given is biochemical. The settings on record: JAK1 enzyme, ADP-Glo luminescence, ATP 250 uM, IRS-itide substrate, 30° C. 40 minutes; read-out: IC50. Summed up:
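JAK1 enzyme, IRS-itide substrate (40 ng/mL) and 250 uM ATP, both as prepared in kinase buffer (Tris-HCl pH 7.5, MgCl2, BSA, DTT), reacted with compound 40 min at 30 °C. ADP formed was detected by ADP-Glo luminescence; IC50 is the concentration giving 50% inhibition versus control.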
Background: In ADP-Glo the light output rises with the ADP produced.

Chain of JAK1 (P23458 whole entry): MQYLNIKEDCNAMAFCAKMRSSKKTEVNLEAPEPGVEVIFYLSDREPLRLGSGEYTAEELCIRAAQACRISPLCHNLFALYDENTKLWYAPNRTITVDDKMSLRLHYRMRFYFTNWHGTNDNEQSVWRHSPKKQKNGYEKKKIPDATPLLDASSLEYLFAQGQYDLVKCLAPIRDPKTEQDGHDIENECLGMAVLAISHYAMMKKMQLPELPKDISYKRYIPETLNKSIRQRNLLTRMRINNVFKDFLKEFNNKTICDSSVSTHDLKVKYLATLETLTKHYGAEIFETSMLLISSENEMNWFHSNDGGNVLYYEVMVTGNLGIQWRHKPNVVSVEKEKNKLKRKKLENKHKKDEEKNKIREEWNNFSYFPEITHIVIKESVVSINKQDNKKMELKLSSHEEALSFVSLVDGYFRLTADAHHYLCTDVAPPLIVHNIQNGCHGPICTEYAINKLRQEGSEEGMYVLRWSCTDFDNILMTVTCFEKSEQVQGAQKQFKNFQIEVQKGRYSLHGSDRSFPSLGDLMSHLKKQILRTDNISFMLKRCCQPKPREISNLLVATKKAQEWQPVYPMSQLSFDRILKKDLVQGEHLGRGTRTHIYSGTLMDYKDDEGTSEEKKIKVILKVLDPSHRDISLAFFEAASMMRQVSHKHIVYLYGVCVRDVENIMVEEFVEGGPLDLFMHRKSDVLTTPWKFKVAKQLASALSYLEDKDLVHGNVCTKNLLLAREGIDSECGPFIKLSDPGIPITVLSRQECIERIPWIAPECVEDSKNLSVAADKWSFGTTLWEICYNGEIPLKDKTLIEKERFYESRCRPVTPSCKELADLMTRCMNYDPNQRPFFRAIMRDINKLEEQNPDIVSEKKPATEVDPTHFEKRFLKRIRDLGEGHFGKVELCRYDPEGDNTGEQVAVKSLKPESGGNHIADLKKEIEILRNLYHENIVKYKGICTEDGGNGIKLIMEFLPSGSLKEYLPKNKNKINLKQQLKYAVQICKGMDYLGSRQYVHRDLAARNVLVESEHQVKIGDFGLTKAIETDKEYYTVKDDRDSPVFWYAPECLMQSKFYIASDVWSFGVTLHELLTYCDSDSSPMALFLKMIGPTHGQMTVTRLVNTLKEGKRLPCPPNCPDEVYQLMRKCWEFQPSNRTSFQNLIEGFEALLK

Broadly, the IC50 is the concentration that gives 50% inhibition. As to `N#CCC(=O)N1C2CCC1CN(c1nc(NC(=O)C3CC3)nc3[nH]ccc13)C2` [Example 688, (N-(4-(8-(2-cyanoacetyl)-3,8-diazabicyclo[3.2.1]octan-3-yl)-7H-pyrrolo[2,3-d]pyrimidin-2-yl)cyclopropanecarboxamide)], the IC50 fell in the range of 0.02 to 0.2 µM. For `N#CC1(CC(=O)N2C3CCC2CN(c2nc(NC(=O)C4CC4)nc4[nH]ccc24)C3)CC1` [Example 689, N-(4-(8-(2-(1-cyanocyclopropyl)acetyl)-3,8-diazabicyclo[3.2.1]octan-3-yl)-7H-pyrrolo[2,3-d]pyrimidin-2-yl)cyclopropanecarboxamide], the IC50 was in the range of 0.02 to 0.2 µM. As for `O=C(Nc1cc(N2CCN(C(=O)NCC(F)(F)F)CC2)c2cc[nH]c2n1)C1CC1` [Example 690, 4-(6-(cyclopropanecarboxamido)-1H-pyrrolo[2,3-b]pyridin-4-yl)-N-(2,2,2-trifluoroethyl)piperazine-1-carboxamide], the figure is more than 0.2 µM; as for `O=C(Nc1cc(N2CC3CCC(C2)N3C(=O)NCC(F)(F)F)c2cc[nH]c2n1)C1CC1` [Example 691, 3-(6-(cyclopropanecarboxamido)-1H-pyrrolo[2,3-b]pyridin-4-yl)-N-(2,2,2-trifluoroethyl)-3,8-diazabicyclo[3.2.1]octane-8-carboxamide], less than 0.02 µM. In the case of `CC(C)(C)OC(=O)N1CCN(c2cc(NC(=O)C3CC3)nc3[nH]ccc23)CC1` [Example 692, tert-butyl 4-(6-(cyclopropanecarboxamido)-1H-pyrrolo[2,3-b]pyridine-4-yl)piperazin-1-carboxylate] it was more than 0.2 µM; in that of `CC(C)(C)OC(=O)N1C2CCC1CN(c1cc(NC(=O)C3CC3)nc3[nH]ccc13)C2` [Example 693, tert-butyl 3-(6-(cyclopropanecarboxamido)-1H-pyrrolo[2,3-b]pyridin-4-yl)-3,8-diazabicyclo[3.2.1]octane-8-carboxylate], 0.02 to 0.2 µM; in that of `CC(C)(C)OC(=O)N1CC2CCC(C1)N2c1cc(NC(=O)C2CC2)nc2[nH]ccc12` [Example 694, tert-butyl 8-(6-(cyclopropanecarboxamido)-1H-pyrrolo[2,3-b]pyridin-4-yl)-3,8-diazabicyclo[3.2.1]octane-3-carboxylate], more than 0.2 µM. In the case of `CC(C)(C)OC(=O)N1C2CCC1CN(c1nc(NC(=O)C3CC3)nc3[nH]ccc13)C2` [Example 695, tert-butyl 3-(2-(cyclopropanecarboxamido)-7H-pyrrolo[2,3-d]pyrimidin-4-yl)-3,8-diazabicyclo[3.2.1]octane-8-carboxylate] it was 0.02 to 0.2 µM.

`CC(C)(C)OC(=O)N[C@H]1CCN(c2nc(NC(=O)C3CC3)nc3[nH]ccc23)C1` [Example 696, tert-butyl (S)-(1-(2-(cyclopropanecarboxamido)-7H-pyrrolo[2,3-d]pyrimidin-4-yl)pyrrolidin-3-yl)carbamate]: the IC50 was more than 0.2 µM. In the case of `CC(C)(C)OC(=O)N[C@H]1CCN(c2cc(NC(=O)C3CC3)nc3[nH]ccc23)C1` [Example 697, tert-butyl (S)-(1-(6-(cyclopropanecarboxamido)-1H-pyrrolo[2,3-b]pyridin-4-yl)pyrrolidin-3-yl)carbamate] it was more than 0.2 µM. As for `O=C(Nc1cc(N2CCN(Cc3ccns3)CC2)c2cc[nH]c2n1)C1CC1` [Example 698, N-(4-(4-(isothiazol-5-ylmethyl)piperazin-1-yl)-1H-pyrrolo[2,3-b]pyridin-6-yl)cyclopropanecarboxamide], the figure is 0.02 to 0.2 µM. In the case of `O=C(Nc1cc(N2CCN(C[C@@H]3CC3(F)F)CC2)c2cc[nH]c2n1)C1CC1` [Example 699, (S)—N-(4-(4-((2,2-difluorocyclopropyl)methyl)piperazin-1-yl)-1H-pyrrolo[2,3-b]pyridin-6-yl)cyclopropanecarboxamide] it was 0.02 to 0.2 µM; in that of `CCS(=O)(=O)N1CC(CC#N)(N2CCN(c3cc(NC(=O)C4CC4)nc4[nH]ccc34)CC2)C1` [Example 700, N-(4-(4-(3-(cyanomethyl)-1-(ethylsulfonyl)azetidin-3-yl)piperazin-1-yl)-1H-pyrrolo[2,3-b]pyridin-6-yl)cyclopropanecarboxamide], more than 0.2 µM. `CCS(=O)(=O)N1CC(CC#N)(N2C3CCC2CN(c2cc(NC(=O)C4CC4)nc4[nH]ccc24)C3)C1` [Example 701, N-(4-(8-(3-(cyanomethyl)-1-(ethylsulfonyl)azetidin-3-yl)-3,8-diazabicyclo[3.2.1]octan-3-yl)-1H-pyrrolo[2,3-b]pyridin-6-yl)cyclopropanecarboxamide]: the IC50 is more than 0.2 µM. In the case of `O=C(Nc1cc(N2CCN(CC(=O)N3CCS(=O)(=O)CC3)CC2)c2cc[nH]c2n1)C1CC1` [Example 702, N-(4-(4-(2-(1,1-dioxidothiomorpholino)-2-oxoethyl)piperazin-1-yl)-1H-pyrrolo[2,3-b]pyridin-6-yl)cyclopropanecarboxamide] it was more than 0.2 µM; in that of `N#C[C@H]1CCCN1C(=O)CN1C2CCC1CN(c1cc(NC(=O)C3CC3)nc3[nH]ccc13)C2` [Example 703, N-(4-(8-(2-((R)-2-cyanopyrrolidin-1-yl)-2-oxoethyl)-3,8-diazabicyclo[3.2.1]octan-3-yl)-1H-pyrrolo[2,3-b]pyridin-6-yl)cyclopropanecarboxamide], more than 0.2 µM. In the case of `O=C(Nc1nc(N2CC3CCC(C2)N3CC(=O)N2CCS(=O)(=O)CC2)c2cc[nH]c2n1)C1CC1` [Example 704, N-(4-(8-(2-(1,1-dioxidothiomorpholino)-2-oxoethyl)-3,8-diazabicyclo[3.2.1]octan-3-yl)-7H-pyrrolo[2,3-d]pyrimidin-2-yl)cyclopropanecarboxamide] it was more than 0.2 µM.

For `C[C@@H]1CN(C(=O)CC#N)CC=C1c1cc(N)nc2[nH]ccc12` [Example 705, (S)-3-(4-(6-amino-1H-pyrrolo[2,3-b]pyridin-4-yl)-3-methyl-3,6-dihydropyridin-1 (2H)-yl)-3-oxopropanenitrile], the IC50 is more than 0.2 µM.

Regarding `CCS(=O)(=O)Nc1ccc(-c2cc(NC(C)=O)nc3[nH]ccc23)cc1F` [Example 710, N-(4-(4-(ethylsulfonamido)-3-fluorophenyl)-1H-pyrrolo[2,3-b]pyridin-6-yl)acetamide], the IC50 lay within 0.02 to 0.2 µM.

On to `CCS(=O)(=O)Nc1ccc(-c2cc(NC(=O)C(C)C)nc3[nH]ccc23)cc1F` [Example 711, N-(4-(4-(ethylsulfonamido)-3-fluorophenyl)-1H-pyrrolo[2,3-b]pyridin-6-yl)isobutyramide], for which the IC50 was more than 0.2 µM. In the case of `CCCC(=O)Nc1cc(-c2ccc(NS(=O)(=O)CC)c(F)c2)c2cc[nH]c2n1` [Example 712, N-(4-(4-(ethylsulfonamido)-3-fluorophenyl)-1H-pyrrolo[2,3-b]pyridin-6-yl)butyramide] it was more than 0.2 µM; in that of `CCS(=O)(=O)Nc1ccc(-c2cc(NCC3CC3)nc3[nH]ccc23)cc1F` [Example 713, N-(4-(6-((cyclopropylmethyl)amino)-1H-pyrrolo[2,3-b]pyridin-4-yl)-2-fluorophenyl)ethanesulfonamide], more than 0.2 µM. For `CCS(=O)(=O)Nc1ccc(-c2cc(N/C(=N\C)C3CC3)nc3[nH]ccc23)cc1` [Example 714, (Z)—N-(4-(4-(ethylsulfonamido)phenyl)-1H-pyrrolo[2,3-b]pyridin-6-yl)-N′-methylcyclopropanecarboximidamide], the IC50 is more than 0.2 µM.

`CCS(=O)(=O)Nc1ccc(-c2cc(NC(=S)C3CC3)nc3[nH]ccc23)cc1` [Example 715, N-(4-(4-(ethylsulfonamido)phenyl)-1H-pyrrolo[2,3-b]pyridin-6-yl)cyclopropanecarbothioamide]: the IC50 lay within 0.02 to 0.2 µM. Take `CCS(=O)(=O)Nc1ccc(-c2cc(NS(=O)(=O)C3CC3)nc3[nH]ccc23)cc1F` [Example 716, N-(4-(4-(ethylsulfonamido)-3-fluorophenyl)-1H-pyrrolo[2,3-b]pyridin-6-yl)cyclopropanesulfonamide]: the IC50 is more than 0.2 µM.

With `O=C(Nc1cc(-c2ccc(CN3CCS(=O)(=O)CC3)cc2)c2cc[nH]c2n1)NC1CC1` [Example 717, 1-cyclopropyl-3-(4-(4-((1,1-dioxidothiomorpholino)methyl)phenyl)-1H-pyrrolo[2,3-b]pyridin-6-yl)urea], the half-maximal inhibitory concentration (IC50) was 0.02 to 0.2 µM. In the case of `CN(C)c1nc(-c2ccc(NS(=O)(=O)c3ccc(F)c(F)c3)cc2)c2cc[nH]c2n1` [Example 718, N-(4-(2-(dimethylamino)-7H-pyrrolo[2,3-d]pyrimidin-4-yl)phenyl)-3,4-difluorobenzenesulfonamide] it was more than 0.2 µM; in that of `CCS(=O)(=O)Nc1ccc(-c2nc(Nc3ccccc3)nc3[nH]ccc23)cc1F` [Example 719, N-(2-fluoro-4-(2-(phenylamino)-7H-pyrrolo[2,3-d]pyrimidin-4-yl)phenyl)ethanesulfonamide], 0.02 to 0.2 µM; in that of `CCS(=O)(=O)Nc1ccc(-c2nc(Nc3ccccc3)nc3[nH]ccc23)cc1` [Example 720, N-(4-(2-(phenylamino)-7H-pyrrolo[2,3-d]pyrimidin-4-yl)phenyl)ethanesulfonamide], 0.02 to 0.2 µM. In the case of `N#CCC(=O)N1C2CCC1CN(c1nc(Nc3ccccc3)nc3[nH]ccc13)C2` [Example 721, 3-oxo-3-(3-(2-(phenylamino)-7H-pyrrolo[2,3-d]pyrimidin-4-yl)-3,8-diazabicyclo[3.2.1]octan-8-yl)propanenitrile] it was 0.02 to 0.2 µM.
